Measurements: patent publication US8906826B2, “Herbicidal compositions comprising 4-amino-3-chloro-5-fluoro-6-(4-chloro-2-fluoro-3-methoxyphenyl) pyridine-2-carboxylic acid or a derivative thereof and imidazolinones” (Dow AgroSciences, LLC, priority 2012, dated 2014)

Columns and labels:
IPOHE = assay: Postemergence foliar-applied, direct seeded rice weeds (Example I); format: in vivo, Ipomoea hederacea Jacq.
Description: Seeds or nutlets of the desired test plant species were planted in a soil matrix prepared by mixing a loam or sandy loam soil (e.g., 28.6 percent silt, 18.8 percent clay, and 52.6 percent sand, with a pH of about 5.8 and an organic matter content of about 1.8 percent) and calcareous grit in an 80 to 20 ratio. The soil matrix was contained in plastic pots with a volume of 1 quart and a surface area of 83.6 cm^2. When required to ensure good germination and healthy plants, a fungicide treatment and/or other chemical or physical treatment was applied. The plants were grown for 8-22 days in a greenhouse with an approximate 14 h photoperiod which was maintained at about 29° C. during the day and 26° C. during the night. Nutrients (Peters Excel® 15-5-15 5-Ca 2-Mg and iron chelate) were applied in the irrigation solution as needed and water was added on a regular basis. Supplemental lighting was provided with overhead metal halide 1000-Watt lamps as necessary. The plants were employed for testing when they reached the first through fourth true leaf stage.
Treatments consisted of the acid or esters of 4-amino-3-chloro-5-fluoro-6-(4-chloro-2-fluoro-3-methoxy-phenyl)pyridine-2-carboxylic acid (Compound A), each formulated as an SC (suspension concentrate), and various herbicidal components alone and in combination. Forms of compound A were applied on an acid equivalent basis.
Other herbicidal components were applied on an acid equivalent basis and include acetolactate synthase (ALS)-inhibiting herbicides (imidazolinone chemical class) imazethapyr ammonium salt formulated as Newpath®, imazamox ammonium salt formulated as Beyond®, imazapic ammonium salt formulated as Plateau®, imazapyr isopropylamine salt formulated as Arsenal®, imazamethabenz-methyl (technical material) and imazaquin isopropylamine salt formulated as Scepter®/Imagine®.
Treatment requirements were calculated based upon the rates being tested, the concentration of active ingredient or acid equivalent in the formulation, and a 12 mL application volume at a rate of 187 L/ha.
For treatments comprised of formulated compounds, measured amounts of compounds were placed individually in 25 mL glass vials and diluted in a volume of 1.25% (v/v) Agri-Dex® crop oil concentrated to obtain 12× stock solutions. […] Application solutions were prepared by adding an appropriate amount of each stock solution (e.g., 1 mL) and diluted to the appropriate final concentrations with the addition of 10 mL of an aqueous mixture of 1.25% (v/v) crop oil concentrate so that the final spray solutions contained 1.25+/−0.05% (v/v) crop oil concentrate.
For treatments comprised of technical compounds, weighed amounts can be placed individually in 25 mL glass vials and dissolved in a volume of 97:3 v/v acetone/DMSO to obtain 12× stock solutions. […] Application solutions can be prepared by adding an appropriate amount of each stock solution (e.g., 1 mL) and diluted to the appropriate final concentrations with the addition of 10 mL of an aqueous mixture of 1.5% (v/v) crop oil concentrate so that the final spray solutions contain 1.25% (v/v) crop oil concentrate. When technical materials are used, the concentrated stock solutions can be added to the spray solutions so that the final acetone and DMSO concentrations of the application solutions are 16.2% and 0.5%, respectively.
For treatments comprised of formulated and technical compounds, weighed amounts of the technical materials were placed individually in 25 mL glass vials and dissolved in a volume of 97:3 v/v acetone/DMSO to obtain 12× stock solutions, and measured amounts of the formulated compounds were placed individually in 25 mL glass vials and diluted in a volume of 1.5% (v/v) crop oil concentrate or water to obtain 12× stock solutions. […]

SONAR = assay: Postemergence herbicidal activity in forage crops (Example IV); format: in vivo, Sonchus arvensis L.; details: after approximately 21 days
Experimental: Seeds or root cuttings of the desired test plant species were planted in Sun Gro MetroMix® 306 planting mixture, which typically has a pH of about 6.0 to about 6.8 and an organic matter content of about 30 percent, in plastic pots with a surface area of 126.6 square centimeters (cm^2). When required to ensure good germination and healthy plants, a fungicide treatment and/or other chemical or physical treatment was applied. The plants were grown for 14-60 days in a greenhouse with an approximate 14 hour photoperiod which was maintained at about 28° C. during the day and about 24° C. during the night. Nutrients and water were added on a regular basis and supplemental lighting was provided with overhead metal halide 1000-Watt lamps as necessary. The plants were employed for testing when they reached the BBCH13 to BBCH23 leaf stage.
Treatments consisted of the benzyl ester of 4-amino-3-chloro-5-fluoro-6-(4-chloro-2-fluoro-3-methoxy-phenyl)pyridine-2-carboxylic acid (Compound A), formulated as a SC (suspension concentrate), and a second herbicide alone and in combination.
A measured aliquot of Compound A was placed in a 25 milliliter (mL) glass vial and diluted in a volume of 1.25% (v/v) Agri-Dex® crop oil concentrate to obtain stock solutions. Compound requirements are based upon a 12 mL application volume at a rate of 187 liters per hectare (L/ha). Spray solutions of the second cereal herbicide and experimental compound mixtures were prepared by adding the stock solutions to the appropriate amount of dilution solution to form 12 mL spray solution with active ingredients in two- and three-way combinations. Formulated compounds were applied to the plant material with an overhead Mandel track sprayer equipped with an 8002E nozzle calibrated to deliver 187 L/ha over an application area of 0.503 square meters (m^2) at a spray height of 18 inches (46 cm) above average plant canopy. Control plants were sprayed in the same manner with the solvent blank.
The treated plants and control plants were placed in a greenhouse as described above and watered by sub-irrigation to prevent wash-off of the test compounds. After approximately 21 days, the condition of the test plants, as compared with that of the control plants, was determined visually and scored on a scale of 0 to 100 percent where 0 corresponds to no injury and 100 corresponds to complete kill.
Colby's equation was used to determine the herbicidal effects expected from the mixtures (Colby, S. R. 1967. Calculation of the synergistic and antagonistic response of herbicide combinations. Weeds 15:20-22.).
The following equation was used to calculate the expected activity of mixtures containing two active ingredients, A and B: Expected=A+B−(A×B/100)

[1] = Compound A Benzyl Ester 17.5 gae/ha

COc1c(Cl)ccc(-c2nc(C(=O)O)c(Cl)c(N)c2F)c1F [Compound A Acid, 4-amino-3-chloro-6-(4-chloro-2-fluoro-3-methoxyphenyl)-5-fluoropyridine-2-carboxylic acid]
Visual Weed Control (%) - 21 DAA IPOHE Obs (IPOHE; Compound A Acid 4.38 gae/ha): 0%
Visual Weed Control (%) - 21 DAA IPOHE Obs (IPOHE; Compound A Acid 8.75 gae/ha): 10%
Visual Weed Control (%) - 21 DAA IPOHE Obs (IPOHE; Compound A Acid 17.5 gae/ha): 30%

Cc1cnc(C2=NC(C)(C(C)C)C(=O)N2)c(C(=O)O)c1.N (racemic) [Imazapic ammonium, ammonium (±)-2-[4,5-dihydro-4-methyl-4-(1-methylethyl)-5-oxo-1H-imidazol-2-yl]-5-methyl-3-pyridinecarboxylic acid]
SONAR Obs (SONAR; Imazapic ammonium 17.5 gae/ha): 0%

COc1c(Cl)ccc(-c2nc(C(=O)OCc3ccccc3)c(Cl)c(N)c2F)c1F [Compound A Benzyl Ester, benzyl ester of 4-amino-3-chloro-5-fluoro-6-(4-chloro-2-fluoro-3-methoxy-phenyl)pyridine-2-carboxylic acid]
Visual Weed Control (%) - 21 DAA IPOHE Obs (IPOHE; Compound A Benzyl Ester 4.38 gae/ha): 0%
Visual Weed Control (%) - 21 DAA IPOHE Obs (IPOHE; Compound A Benzyl Ester 8.75 gae/ha): 10%
Visual Weed Control (%) - 21 DAA IPOHE Obs (IPOHE; [1]): 25%
SONAR Obs (SONAR; Compound A Benzyl Ester 4.4 gae/ha): 65%
SONAR Obs (SONAR; Compound A Benzyl Ester 8.8 gae/ha): 100%
SONAR Obs (SONAR; [1]): 95%
